Test results from ChEMBL document CHEMBL1201862, “PubChem BioAssay data set” (2004).
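Cells were grown in 96-well plates and exposed to each compound for 48 hours at five concentrations; endpoints were interpolated linearly between bracketing concentrations, or set to the highest concentration if not reached. GI50: concentration for 50% inhibition of growth.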 Calls of active or inactive are those of the source. Cut-off read from the data, not from the text of the source: active = GI50 up to about 1.1 µM and inactive = higher.

Columns and labels:
Experiment in all cases: inhibition of tumour cell growth, NCI panel, 48 h
LOX IMVI = tested on: LOX IMVI
HCT-15 = tested on: HCT-15
NCI-H23 = tested on: NCI-H23
M14 = tested on: M14
A498 = tested on: A498
SN12C = tested on: SN12C
RXF 393 = tested on: RXF 393
OVCAR-5 = tested on: OVCAR-5
NCI/ADR-RES = tested on: NCI/ADR-RES
T47D = tested on: T47D
SNB-75 = tested on: SNB-75
OVCAR-8 = tested on: OVCAR-8
COLO 205 = tested on: COLO 205
SK-MEL-28 = tested on: SK-MEL-28
U-251 = tested on: U-251
A549 = tested on: A549
EKVX = tested on: EKVX
OVCAR-4 = tested on: OVCAR-4
SR = tested on: SR

Compound | GI50 (LOX IMVI) | GI50 (HCT-15) | GI50 (NCI-H23) | GI50 (M14) | GI50 (A498) | GI50 (SN12C) | GI50 (RXF 393) | GI50 (OVCAR-5) | GI50 (NCI/ADR-RES) | GI50 (T47D) | GI50 (SNB-75) | GI50 (OVCAR-8) | GI50 (COLO 205) | GI50 (SK-MEL-28) | GI50 (U-251) | GI50 (A549) | GI50 (EKVX) | GI50 (OVCAR-4) | GI50 (SR)
O=C(O)CCC(NC(=O)c1ccc(Nc2cnc3ccc(C(F)(F)F)cc3n2)cc1)C(=O)O (configuration not stated) | > 100 µM (inactive) | > 100 µM | > 100 µM (inactive) | > 100 µM (inactive) | > 100 µM (inactive) | > 100 µM (inactive) | > 100 µM (inactive) | > 100 µM (inactive) | > 100 µM (inactive) | > 100 µM (inactive) | > 100 µM (inactive) | > 100 µM (inactive) | > 100 µM (inactive) | > 100 µM (inactive) | > 100 µM (inactive) | > 100 µM (inactive) | > 100 µM (inactive) | > 100 µM (inactive) | > 100 µM (inactive)
Cc1ccc2c(=O)c3c(O)c4c(cc3n(C)c2c1)OC(C)(C)C=C4 | > 10 µM (inactive) | > 10 µM | > 10 µM (inactive) | > 10 µM (inactive) | > 10 µM (inactive) | > 10 µM (inactive) | > 10 µM (inactive) | > 10 µM (inactive) | > 10 µM (inactive) | > 10 µM (inactive) | > 10 µM (inactive) | > 10 µM (inactive) | > 10 µM (inactive) | > 10 µM (inactive) | > 10 µM (inactive) | > 10 µM (inactive) | > 10 µM (inactive) | > 10 µM (inactive) | > 10 µM (inactive)
C[C@]12CCC(=O)C=C1CC[C@@H]1[C@@H]2CC[C@]2(C)C(=O)/C(=C\c3ccccc3)C[C@@H]12 | 21.2 µM (inactive) | 21.9 µM | 14.2 µM (inactive) | 22.4 µM (inactive) | 15.6 µM (inactive) | 15.1 µM (inactive) | 41.1 µM (inactive) | 50 µM (inactive) | 14 µM (inactive) | 17.5 µM (inactive) | 61.1 µM (inactive) | 21.7 µM (inactive) | 24.2 µM (inactive) | > 46.8 µM (inactive) | 29.4 µM (inactive) | 22.6 µM (inactive) | 19 µM (inactive) | 41.9 µM (inactive) | 4.53 µM (inactive)
O=C(O)C1(Cc2ccc3c(c2)CCC3)Cc2ccccc2C1=O (configuration not stated) | 78 µM (inactive) | 34.8 µM | 46.2 µM (inactive) | > 100 µM (inactive) | 42.5 µM (inactive) | 63.7 µM (inactive) | > 100 µM (inactive) | > 100 µM (inactive) | 58.1 µM (inactive) | 40.9 µM (inactive) | 38.8 µM (inactive) | 83 µM (inactive) | 52.6 µM (inactive) | > 100 µM (inactive) | 38.4 µM (inactive) | 42.3 µM (inactive) | 63.2 µM (inactive) | 55.6 µM (inactive) | 59 µM (inactive)
CC(C)[C@H](NC(=O)OCc1ccccc1)C(=O)N[C@H](/C=C/C(=O)OC(C)(C)C)CO | > 100 µM (inactive) | > 100 µM | > 100 µM (inactive) | > 100 µM (inactive) | > 100 µM (inactive) | > 100 µM (inactive) | > 100 µM (inactive) | > 100 µM (inactive) | > 100 µM (inactive) | 36.7 µM (inactive) | 0.12 µM (active) | > 100 µM (inactive) | 80.4 µM (inactive) | > 100 µM (inactive) |  | > 100 µM (inactive) | > 100 µM (inactive) | > 100 µM (inactive) | > 100 µM (inactive)
CC(=O)NC1C(OCc2ccccc2)OC(CO)C(O)C1OCC(=O)N[C@@H](C)C(=O)N[C@H](CCC(=O)NCCCNc1c2ccccc2nc2cccc([N+](=O)[O-])c12)C(N)=O (some centres not stated) | 0.0439 µM (active) | 0.0312 µM | 0.0248 µM (active) | 0.0341 µM (active) | 0.0547 µM (active) | 0.0397 µM (active) | 0.0352 µM (active) | 0.0718 µM (active) | 0.564 µM (active) | 0.047 µM (active) | 0.122 µM (active) | 0.0746 µM (active) | 0.0118 µM (active) | 0.205 µM (active) | 0.0349 µM (active) | 0.0245 µM (active) | 0.0462 µM (active) | 0.0418 µM (active) | 0.0249 µM (active)
Cn1cc(C[C@@H](N)C(=O)O)c2ccccc21 [INDOXIMOD] | > 100 µM (inactive) | > 100 µM | > 100 µM (inactive) | > 100 µM (inactive) | > 100 µM (inactive) | > 100 µM (inactive) | 20 µM (inactive) | > 100 µM (inactive) | > 100 µM (inactive) | > 100 µM (inactive) | > 100 µM (inactive) | > 100 µM (inactive) | > 100 µM (inactive) | > 100 µM (inactive) | > 100 µM (inactive) | > 100 µM (inactive) | > 100 µM (inactive) | > 100 µM (inactive) | > 100 µM (inactive)
C=CCOc1ccc(C(=N/NC(=O)c2ccccc2)/N=N/c2ccccc2)cc1OC | 42.1 µM (inactive) | 63.8 µM | 73.8 µM (inactive) | > 100 µM (inactive) | > 100 µM (inactive) | > 100 µM (inactive) | > 100 µM (inactive) | > 100 µM (inactive) | 84.3 µM (inactive) | 24 µM (inactive) | > 100 µM (inactive) | 65.3 µM (inactive) | 55 µM (inactive) | > 100 µM (inactive) | 79.4 µM (inactive) | > 100 µM (inactive) | > 100 µM (inactive) | 89.9 µM (inactive) | 77.1 µM (inactive)
COc1ccc([C@]23CCC4(OCC(C)(C)CO4)[C@H]4CON(O[C@H](O[C@@H]5CCCCC5C(C)(C)c5ccccc5)C2)[C@@H]43)cc1OC (some centres not stated) | 57.5 µM (inactive) | 37.8 µM | 47.6 µM (inactive) | 35.6 µM (inactive) | 48.1 µM (inactive) | 61.1 µM (inactive) | 25.4 µM (inactive) | 89.1 µM (inactive) | 31 µM (inactive) | 20.2 µM (inactive) | 41.5 µM (inactive) | 60 µM (inactive) | 34.7 µM (inactive) | 42.6 µM (inactive) | 64 µM (inactive) | 42.3 µM (inactive) | 34 µM (inactive) | 26.1 µM (inactive) | 20 µM (inactive)
O=C1c2ccccc2-c2cc([N+](=O)[O-])c([N+](=O)[O-])cc21 | 0.861 µM (active) | 1.78 µM | 1.91 µM (inactive) | 1.77 µM (inactive) | 17.2 µM (inactive) | 1.86 µM (inactive) | 1.33 µM (inactive) | 2.18 µM (inactive) | 2.81 µM (inactive) | 0.748 µM (active) | 1.82 µM (inactive) | 1.64 µM (inactive) | 2.11 µM (inactive) | 2.9 µM (inactive) | 1.56 µM (inactive) | 2.43 µM (inactive) | 2.04 µM (inactive) | 1.81 µM (inactive) | 0.13 µM (active)
Cc1cc(C2(c3cc(C)c(O)c(C(=O)O)c3)OS(=O)(=O)c3ccccc32)cc(C(=O)O)c1O | > 100 µM (inactive) | > 100 µM |  | > 100 µM (inactive) | > 100 µM (inactive) | > 100 µM (inactive) | > 100 µM (inactive) | > 100 µM (inactive) | > 100 µM (inactive) | > 100 µM (inactive) | > 100 µM (inactive) | > 100 µM (inactive) | > 100 µM (inactive) | > 100 µM (inactive) | > 100 µM (inactive) | > 100 µM (inactive) | > 100 µM (inactive) | > 100 µM (inactive) | > 100 µM (inactive)
